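96-well plates; 48 h exposure; 5 concentrations. Endpoints by linear interpolation between flanking doses. Not reached: highest tested concentration assigned. TGI: total growth inhibition.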
Tests used:
Assay in all cases: DTP human tumour cell line panel, 48 h
A549 NSCLC = tested on: A549 NSCLC
HCT-116 colon = tested on: HCT-116 colon
HCT-15 colon = tested on: HCT-15 colon
HOP-92 NSCLC = tested on: HOP-92 NSCLC
M14 melanoma = tested on: M14 melanoma
MDA-MB-231 breast = tested on: MDA-MB-231 breast
MDA-N = tested on: MDA-N
NCI-H226 lung = tested on: NCI-H226 lung
NCI/ADR-RES ovarian = tested on: NCI/ADR-RES ovarian
OVCAR-4 ovarian = tested on: OVCAR-4 ovarian
OVCAR-5 ovarian = tested on: OVCAR-5 ovarian
SK-MEL-5 melanoma = tested on: SK-MEL-5 melanoma
SN12C renal = tested on: SN12C renal
SNB-19 CNS = tested on: SNB-19 CNS
T-47D breast = tested on: T-47D breast
U251 CNS = tested on: U251 CNS

Row | SMILES | TGI (A549 NSCLC) | TGI (HCT-116 colon) | TGI (HCT-15 colon) | TGI (HOP-92 NSCLC) | TGI (M14 melanoma) | TGI (MDA-MB-231 breast) | TGI (MDA-N) | TGI (NCI-H226 lung) | TGI (NCI/ADR-RES ovarian) | TGI (OVCAR-4 ovarian) | TGI (OVCAR-5 ovarian) | TGI (SK-MEL-5 melanoma) | TGI (SN12C renal) | TGI (SNB-19 CNS) | TGI (T-47D breast) | TGI (U251 CNS)
1 | O=C1CSC(c2ccc(Cl)cc2Cl)N1c1ccc(Oc2ccc(Cl)cc2)c(Cl)c1 (stereo unspecified) | > 100 µM | 36.2 µM | 66.4 µM | 49.4 µM | > 100 µM | 45.2 µM | 98 µM | > 100 µM | 55.1 µM | 78.6 µM | > 100 µM | 43.6 µM | > 100 µM | > 100 µM | 90.1 µM | > 100 µM
2 | COc1nc2ccc(COc3ccc(C(=O)O)cc3)cc2nc1OC | > 100 µM | > 100 µM | > 100 µM | > 100 µM | > 100 µM | > 100 µM | > 100 µM | > 100 µM | > 100 µM | > 100 µM | > 100 µM | > 100 µM | > 100 µM | > 100 µM | > 100 µM | > 100 µM
3 | OC1(c2ccc(Cl)cc2)c2ccccc2-c2nc3ccccc3n21 (stereo unspecified) | > 100 µM | > 100 µM | > 100 µM | > 100 µM | > 100 µM | > 100 µM | > 100 µM | > 100 µM | > 100 µM | > 100 µM | > 100 µM | > 100 µM | > 100 µM | 97.3 µM | > 100 µM | > 100 µM
4 | CC1(C)COC2=C(C1)C(=O)c1ccccc1C2=O | 4.76 µM | 1.7 µM | 2.41 µM | 3.85 µM | 2.96 µM | 4 µM | 0.325 µM | 4.8 µM | 1.94 µM | 2.9 µM | 3.15 µM | 1.88 µM | 2.76 µM | 3.82 µM | 2.44 µM | 2.78 µM
5 | Cc1c2c(n(CC(c3ccccc3)c3ccccc3)c1C)NN=C(C#N)S2(=O)=O | > 100 µM | > 100 µM | > 100 µM | > 100 µM | > 100 µM | > 100 µM | > 100 µM | > 100 µM | > 100 µM | > 100 µM | > 100 µM | > 100 µM | > 100 µM | > 100 µM | > 100 µM | > 100 µM
6 | Cc1nc2sc(C(=O)c3ccc(Cl)cc3)c(N)c2c(-c2ccccc2Cl)c1C(=O)Nc1ccccc1 | 31.4 µM | 26.8 µM | 43.5 µM | 15.9 µM | 25.8 µM | 34.6 µM | 29.5 µM | 62.1 µM | 60 µM | 41 µM | 38.6 µM | 36.6 µM | 42.1 µM | 71.2 µM | 19 µM | 37.4 µM
7 | COC(=O)C1OC(O[C@H]2CC[C@]3(C)[C@H]4CC=C5[C@@H]6CC(C)(C)CC[C@]6(C(=O)OC6OCC(O)C(O)C6OC6OC(C)C(OC7OCC(O)C(O)C7O)C(OC7OCC(O)(CO)C7O)C6O)[C@H](O)C[C@@]5(C)[C@]4(C)CC[C@H]3C2(C)C)C(O)C(O)C1O (stereo partly specified) | 12.6 µM | 13.5 µM | 22.2 µM | 3.94 µM | 7.41 µM | 7.56 µM | 4.14 µM | 15.5 µM | 18.2 µM | 17.4 µM | 13.4 µM | 16.6 µM | 3.6 µM | 19 µM | 15.3 µM | 19.3 µM
8 | CC(Oc1ccccc1)C(=O)NNC(=O)OC(C)(C)C (stereo unspecified) | > 100 µM | > 100 µM | > 100 µM | > 100 µM | > 100 µM | > 100 µM | > 100 µM | > 100 µM | > 100 µM | > 100 µM | > 100 µM | > 100 µM | > 100 µM | > 100 µM | > 100 µM | > 100 µM
9 | O=C(NO)NCCCl | > 100 µM | > 100 µM | > 100 µM | > 100 µM | > 100 µM | > 100 µM | > 100 µM | > 100 µM | > 100 µM | > 100 µM | > 100 µM | > 100 µM | > 100 µM | > 100 µM | > 100 µM | > 100 µM
10 | O=C1C(c2c(O)[nH]c3ccc(Br)cc23)=Nc2ccc(Br)cc21 | > 100 µM | 34.6 µM | > 100 µM | > 100 µM | > 100 µM | 79.5 µM | 63 µM | > 100 µM | > 100 µM | > 100 µM | > 100 µM | > 100 µM | > 100 µM | 92.4 µM | > 100 µM | 35 µM
11 | COC(=O)C1(SC)C2CCC3C2CCC31 (stereo unspecified) | > 100 µM | > 100 µM | > 100 µM | > 100 µM | > 100 µM | > 100 µM | > 100 µM | > 100 µM | > 100 µM | > 100 µM | > 100 µM | > 100 µM | > 100 µM | > 100 µM | > 100 µM | > 100 µM
